Test results published in paper PMC9888433, “Biochemical and hydrogen-deuterium exchange studies of the single nucleotide polymorphism Y649C in human platelet 12-lipoxygenase linked to a bleeding disorder” (Archives of biochemistry and biophysics, 2022).
Changes are numbered by the printed parent chain. In names and notes the source's numbering stands.

Assays:
[1] = target: T1, human platelet 12-lipoxygenase (h12-LOX) Y649C (Homo sapiens, UniProt P18054, Y649C); experiment: steady-state Michaelis-Menten kinetics ([…] nm), kcat/KM at […] °C; LC-MS/MS products; assay type: biochemical
T1 construct: gene ALOX12; Nt-6His-tag recombinant enzyme expressed in Sf9
T1 sequence (P18054 1-663 Y649C): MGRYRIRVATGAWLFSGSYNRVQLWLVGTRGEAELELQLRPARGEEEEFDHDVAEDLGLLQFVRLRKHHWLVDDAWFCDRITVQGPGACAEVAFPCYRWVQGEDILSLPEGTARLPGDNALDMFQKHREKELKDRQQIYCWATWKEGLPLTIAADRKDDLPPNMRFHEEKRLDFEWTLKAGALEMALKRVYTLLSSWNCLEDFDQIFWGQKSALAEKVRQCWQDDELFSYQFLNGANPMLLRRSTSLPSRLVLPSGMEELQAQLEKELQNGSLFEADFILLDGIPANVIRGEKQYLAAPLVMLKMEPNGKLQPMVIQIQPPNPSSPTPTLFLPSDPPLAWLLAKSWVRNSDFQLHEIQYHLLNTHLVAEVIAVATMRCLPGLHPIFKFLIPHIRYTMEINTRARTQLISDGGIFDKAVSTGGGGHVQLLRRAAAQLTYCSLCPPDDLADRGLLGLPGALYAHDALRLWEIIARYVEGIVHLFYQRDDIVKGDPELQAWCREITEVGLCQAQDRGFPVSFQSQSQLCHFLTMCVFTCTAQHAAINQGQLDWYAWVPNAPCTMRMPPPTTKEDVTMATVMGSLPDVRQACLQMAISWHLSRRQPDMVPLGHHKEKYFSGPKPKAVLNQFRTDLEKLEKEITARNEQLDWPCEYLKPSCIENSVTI

[2] = target: T2, human platelet 12-lipoxygenase (h12-LOX) (Homo sapiens, UniProt P18054); experiment: as above; assay type: biochemical
T2 construct: gene ALOX12; Nt-6His-tag recombinant enzyme expressed in Sf9
T2 sequence (P18054 1-663): T1 sequence (P18054 1-663 Y649C) with C649Y

[3] = target: T1, human platelet 12-lipoxygenase (h12-LOX) Y649C; experiment: as above; assay type: biochemical; remark: listed apart in the source
[4] = target: T2, human platelet 12-lipoxygenase (h12-LOX); experiment: as above; assay type: biochemical; remark: listed apart in the source
[5] = target: T3, wild-type human platelet 12S-lipoxygenase (human), P18054; experiment: SEC; affinity-purified protein on Superdex 75 10/300 GL, 25 mM HEPES (pH 8), 0.3 mL/min; elution compared with gel filtration standards; conditions: remark: other sources report otherwise
T3 chain: T1 sequence (P18054 1-663 Y649C) with C649Y

[6] = target: the molecule itself; experiment: as above

CCCCC/C=C\C/C=C\C/C=C\C/C=C\CCCC(=O)O [AA, arachidonic acid]
kcat/KM (μM^-1sec^-1) / Y649C [1]: 6 µM⁻¹ s⁻¹
kcat/KM (μM^-1sec^-1) / WT [2]: 8.7 µM⁻¹ s⁻¹

CC/C=C\C/C=C\C/C=C\C/C=C\C/C=C\C/C=C\CCC(=O)O [DHA, docosahexaenoic acid]
steady-state Michaelis-Menten kinetics (234 nm), kcat/KM at 22 °C; LC-MS/MS prod [3]: 960000 M⁻¹ s⁻¹
steady-state Michaelis-Menten kinetics (234 nm), kcat/KM at 22 °C; LC-MS/MS prod [4]: 7.7e+06 M⁻¹ s⁻¹

B1: wild-type human platelet 12S-lipoxygenase, P18054 1-663 (enzyme)
chain: T1 sequence (P18054 1-663 Y649C) with C649Y
stoichiometry N [5]: 2

B2: Y649C h12-LOX (enzyme, human, UniProt P18054 1-663, looked up)
chain: T1 sequence (P18054 1-663 Y649C)
notes: human platelet 12-lipoxygenase (h12-LOX), UniProt P18054, with the naturally occurring SNP Y649C made by site-directed mutagenesis; numbering as in UniProt P18054; Variant found in a family with a bleeding diathesis; metal content 20% by ICP-MS; also called Y649C SNP variant of h12-LOX
stoichiometry N [6]: 2
